Tests used:
Assay type in all cases: physicochemical
[1] = Compressibility: tablets on instrumented Carver press, no excipients, three-point bend stress; conditions: current experimental conditions
Method: Compressibility of a second sample of magnesium citrate glycinate was evaluated using an instrumented Carver press. Approximately 1.6 g, 5 mm thick tablets were compressed using the 0.4″×0.9″ rectangular tooling. No excipients were used. The sides of the tooling were slightly dusted with magnesium stearate in order to facilitate tablet ejection and eliminate sticking. The tablets were subjected to a three-point bend stress using a TA.XT2-Plus texture analyzer (from Stable Micro Systems of Surrey, England). Flexural strength and young modulus of the compact were measured. In addition, compact density was calculated from the weight and size measurements of the tablets.
An attempt was made to compare compressibility of magnesium citrate glycinate with those of individual salts, magnesium citrate tribasic and magnesium bis-glycinate.

[2] = Aqueous stability of 10% w/w solution standing for 24 hours, visual inspection; conditions: 10% w/w solution in water
[3] = Apparent density measurement
Method: In addition, particle size distribution and apparent density of di-magnesium citrate glycinate co-salt were measured.

Row | SMILES | Compressibility, tablet formation [1] | Aqueous stability, change of clear and colorless solution [2] | Apparent density [3] [kg/m^3]
1 | NCC(=O)[O-].NCC(=O)[O-].[Mg+2] [magnesium bis-glycinate] | no cohesive tablets were obtained | – | –
2 | NCC(=O)[O-].O=C([O-])CC(O)(CC(=O)[O-])C(=O)[O-].[Mg+2].[Mg+2] [magnesium citrate glycinate co-salt] | – | no change | 1740
3 | O=C([O-])CC(O)(CC(=O)[O-])C(=O)[O-].O=C([O-])CC(O)(CC(=O)[O-])C(=O)[O-].[Mg+2].[Mg+2].[Mg+2] [magnesium citrate tribasic] | no cohesive tablets were obtained | – | –
